What was measured:
[1] = target: Gap junction beta-2 protein (Homo sapiens) (UniProt P29033); test: Inhibition of human Cx26 expressed in kanamycin-resistant Escherichia coli LB2003 cells in medium containing […] K+ and 500 uM IPTG by measuring cell growth at 15 uM after 18 hrs by growth complementation assay; set-up: scale not given: the % may be the effect or the level left
[2] = target: Gap junction beta-2 protein (Homo sapiens) (UniProt P29033); test: Inhibition of human Cx26 expressed in kanamycin-resistant Escherichia coli LB2003 cells in medium containing […] K+ and 500 uM IPTG by measuring cell growth at 50 uM after 18 hrs by growth complementation assay; set-up: scale not given: the % may be the effect or the level left
[3] = target: Gap junction alpha-1 protein (Homo sapiens) (UniProt P17302); test: Inhibition of human Cx43 expressed in kanamycin-resistant Escherichia coli LB2003 cells in medium containing […] K+ and 10 uM IPTG by measuring cell growth at 50 uM after 18 hrs by growth complementation assay; set-up: scale not given: the % may be the effect or the level left
[4] = target: Gap junction alpha-1 protein (Homo sapiens) (UniProt P17302); test: Inhibition of human Cx43 expressed in kanamycin-resistant Escherichia coli LB2003 cells in medium containing […] K+ and 10 uM IPTG by measuring cell growth at 15 uM after 18 hrs by growth complementation assay; set-up: scale not given: the % may be the effect or the level left
[5] = Selectivity ratio of IC50 for inhibition of human Cx43 to IC50 for inhibition of human Cx26

Chain of Gap junction alpha-1 protein (Homo sapiens) (P17302 whole entry): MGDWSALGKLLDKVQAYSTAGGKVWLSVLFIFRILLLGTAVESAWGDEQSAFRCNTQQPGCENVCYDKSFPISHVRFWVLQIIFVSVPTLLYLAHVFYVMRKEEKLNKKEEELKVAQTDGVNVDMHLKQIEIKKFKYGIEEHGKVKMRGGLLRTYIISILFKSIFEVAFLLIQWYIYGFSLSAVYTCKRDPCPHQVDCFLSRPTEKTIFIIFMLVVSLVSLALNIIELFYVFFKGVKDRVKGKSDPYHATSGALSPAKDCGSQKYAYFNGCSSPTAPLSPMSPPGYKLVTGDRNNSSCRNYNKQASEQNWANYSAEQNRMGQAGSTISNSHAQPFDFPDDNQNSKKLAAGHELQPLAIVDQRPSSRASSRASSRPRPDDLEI

| Structure (SMILES) | Activity [1] | Activity [2] | Activity [3] | Activity [4] | Selectivity ratio [5] |
| --- | --- | --- | --- | --- | --- |
| CCCCCCC(=O)NC[C@H]1O[C@H](O[C@H]2[C@H](O)[C@@H](O[C@H]3O[C@H](CO)[C@@H](O)[C@H](N)[C@H]3O)[C@H](N)C[C@@H]2N)[C@H](O)[C@@H](O)[C@@H]1O | 22.5% | 34.3% | 36% | 18.5% | – |
| N[C@@H]1[C@@H](O)[C@@H](O[C@@H]2[C@@H](O)[C@H](O[C@H]3O[C@H](CNC(=O)c4cc(-c5ccccc5)nc5ccccc45)[C@@H](O)[C@H](O)[C@H]3O)[C@@H](N)C[C@H]2N)O[C@H](CO)[C@H]1O | 8% | 22.8% | 51% | 25.5% | – |
| N[C@@H]1[C@@H](O)[C@@H](O[C@@H]2[C@@H](O)[C@H](O[C@H]3O[C@H](CNC(=O)c4ccc5cc(O)ccc5c4)[C@@H](O)[C@H](O)[C@H]3O)[C@@H](N)C[C@H]2N)O[C@H](CO)[C@H]1O | 4.7% | 32.8% | 37.1% | 34.1% | – |
| CCCCCCCC(=O)NC[C@H]1O[C@H](O[C@H]2[C@H](O)[C@@H](O[C@H]3O[C@H](CO)[C@@H](O)[C@H](N)[C@H]3O)[C@H](N)C[C@@H]2N)[C@H](O)[C@@H](O)[C@@H]1O | 14% | 25.2% | 37.2% | 17% | – |
| CCCCCCCCCC(=O)NC[C@H]1O[C@H](O[C@H]2[C@H](O)[C@@H](O[C@H]3O[C@H](CO)[C@@H](O)[C@H](N)[C@H]3O)[C@H](N)C[C@@H]2N)[C@H](O)[C@@H](O)[C@@H]1O | 16.1% | 33.6% | 53.5% | 44.4% | – |
| Cc1ccc(COC[C@H]2O[C@H](O[C@@H]3[C@@H](O)[C@H](O[C@H]4O[C@H](CN)[C@@H](O)[C@H](O)[C@H]4O)[C@@H](N)C[C@H]3N)[C@H](O)[C@@H](N)[C@@H]2OCc2ccc(C)cc2)cc1 | – | – | – | – | 1.39 |
| CCCCCCCCCCCC(=O)NC[C@H]1O[C@H](O[C@H]2[C@H](O)[C@@H](O[C@H]3O[C@H](CO)[C@@H](O)[C@H](N)[C@H]3O)[C@H](N)C[C@@H]2N)[C@H](O)[C@@H](O)[C@@H]1O | 16.4% | 56.2% | 70.9% | 53.6% | 6.88 |
| N[C@@H]1[C@@H](O)[C@@H](O[C@@H]2[C@@H](O)[C@H](O[C@H]3O[C@H](CNC(=O)CCCc4cc5ccc6cccc7ccc(c4)c5c67)[C@@H](O)[C@H](O)[C@H]3O)[C@@H](N)C[C@H]2N)O[C@H](CO)[C@H]1O | 36.9% | 79.2% | 69.6% | 52.2% | 2.16 |
| COc1ccc(COC[C@H]2O[C@H](O[C@@H]3[C@@H](O)[C@H](O[C@H]4O[C@H](CN)[C@@H](O)[C@H](O)[C@H]4O)[C@@H](N)C[C@H]3N)[C@H](O)[C@@H](N)[C@@H]2OCc2ccc(OC)cc2)cc1 | – | – | – | – | 3.17 |
| COc1ccc2cc(C(=O)NC[C@H]3O[C@H](O[C@H]4[C@H](O)[C@@H](O[C@H]5O[C@H](CO)[C@@H](O)[C@H](N)[C@H]5O)[C@H](N)C[C@@H]4N)[C@H](O)[C@@H](O)[C@@H]3O)ccc2c1 | 15.1% | 27.9% | 45.1% | 42.1% | – |
| NC[C@H]1O[C@H](O[C@H]2[C@H](O)[C@@H](O[C@H]3O[C@H](CNC(=O)c4ccccc4-c4c5ccc(=O)cc-5oc5cc(O)ccc45)[C@@H](O)[C@H](N)[C@H]3O)[C@H](N)C[C@@H]2N)[C@H](O)[C@@H](O)[C@@H]1O | 37.1% | 81% | 55.1% | 45.3% | – |
| NC[C@H]1O[C@H](O[C@H]2[C@H](O)[C@@H](O[C@H]3O[C@H](COCc4ccc(F)cc4)[C@@H](OCc4ccc(F)cc4)[C@H](N)[C@H]3O)[C@H](N)C[C@@H]2N)[C@H](O)[C@@H](O)[C@@H]1O | – | – | – | – | 0.3 |
| NC[C@H]1O[C@H](O[C@H]2[C@H](O)[C@@H](O[C@H]3O[C@H](COCc4ccc5ccccc5c4)[C@@H](OCc4ccc5ccccc5c4)[C@H](N)[C@H]3O)[C@H](N)C[C@@H]2N)[C@H](O)[C@@H](O)[C@@H]1O | – | – | – | – | 1.07 |
| N[C@@H]1[C@@H](O)[C@@H](O[C@@H]2[C@@H](O)[C@H](O[C@H]3O[C@H](CNC(=O)c4ccccc4-c4c5ccc(=O)cc-5oc5cc(O)ccc45)[C@@H](O)[C@H](O)[C@H]3O)[C@@H](N)C[C@H]2N)O[C@H](CO)[C@H]1O | 22.3% | 79.6% | 83.4% | 56.8% | 1.42 |
| NC[C@H]1O[C@H](O[C@H]2[C@H](O)[C@@H](O[C@H]3O[C@H](COCc4ccc(Cl)cc4)[C@@H](OCc4ccc(Cl)cc4)[C@H](N)[C@H]3O)[C@H](N)C[C@@H]2N)[C@H](O)[C@@H](O)[C@@H]1O | – | – | – | – | 0.15 |
| NC[C@H]1O[C@H](O[C@H]2[C@H](O)[C@@H](O[C@H]3O[C@H](COCc4cccc(-c5ccccc5)c4)[C@@H](OCc4cccc(-c5ccccc5)c4)[C@H](N)[C@H]3O)[C@H](N)C[C@@H]2N)[C@H](O)[C@@H](O)[C@@H]1O | – | – | – | – | 1.23 |

Next, values leading:

| Activity [1] | Activity [2] | Activity [3] | Activity [4] | Selectivity ratio [5] | Structure (SMILES) |
| --- | --- | --- | --- | --- | --- |
| 35.9% | 62.6% | 49.3% | 36.5% | – | NC[C@H]1O[C@H](O[C@H]2[C@H](O)[C@@H](O[C@H]3O[C@H](COc4ccc([N+](=O)[O-])cc4)[C@@H](O)[C@H](N)[C@H]3O)[C@H](N)C[C@@H]2N)[C@H](O)[C@@H](O)[C@@H]1O |
| 46.3% | 67.8% | 54.3% | 27.3% | – | NC[C@H]1O[C@H](O[C@H]2[C@H](O)[C@@H](O[C@H]3O[C@H](COc4ccc(-c5ccccc5)cc4)[C@@H](O)[C@H](N)[C@H]3O)[C@H](N)C[C@@H]2N)[C@H](O)[C@@H](O)[C@@H]1O |
| 44.4% | 69.5% | 68.3% | 50.3% | 1.93 | NC[C@H]1O[C@H](O[C@H]2[C@H](O)[C@@H](O[C@H]3O[C@H](COc4ccc(Cl)cc4)[C@@H](O)[C@H](N)[C@H]3O)[C@H](N)C[C@@H]2N)[C@H](O)[C@@H](O)[C@@H]1O |
| 83.1% | 85.5% | 71.7% | 43.2% | 0.34 | NC[C@H]1O[C@H](O[C@H]2[C@H](O)[C@@H](O[C@H]3O[C@H](COc4ccc(-c5nc6ccccc6[nH]5)cc4)[C@@H](O)[C@H](N)[C@H]3O)[C@H](N)C[C@@H]2N)[C@H](O)[C@@H](O)[C@@H]1O |
| 26.8% | 49.2% | 51% | 38.1% | – | Cc1ccc(S(=O)(=O)OC[C@H]2O[C@H](O[C@@H]3[C@@H](O)[C@H](O[C@H]4O[C@H](CN)[C@@H](O)[C@H](O)[C@H]4O)[C@@H](N)C[C@H]3N)[C@H](O)[C@@H](N)[C@@H]2O)cc1 |
| 15.9% | 36.5% | 34.8% | 20% | – | COc1ccc(OC[C@H]2O[C@H](O[C@@H]3[C@@H](O)[C@H](O[C@H]4O[C@H](CN)[C@@H](O)[C@H](O)[C@H]4O)[C@@H](N)C[C@H]3N)[C@H](O)[C@@H](N)[C@@H]2O)cc1 |
| 14.6% | 69.4% | 46.7% | 36% | – | NC[C@H]1O[C@H](O[C@H]2[C@H](O)[C@@H](O[C@H]3O[C@H](COc4ccccc4)[C@@H](O)[C@H](N)[C@H]3O)[C@H](N)C[C@@H]2N)[C@H](O)[C@@H](O)[C@@H]1O |
| 19.3% | 28.2% | 76.8% | 63.8% | 7.97 | Cc1ccc(OC[C@H]2O[C@H](O[C@@H]3[C@@H](O)[C@H](O[C@H]4O[C@H](CN)[C@@H](O)[C@H](O)[C@H]4O)[C@@H](N)C[C@H]3N)[C@H](O)[C@@H](N)[C@@H]2O)cc1 |

— ChEMBL document CHEMBL4765383, “Amphiphilic aminoglycosides with increased selectivity for inhibition of connexin 43 (Cx43) hemichannels” (Eur J Med Chem, 2020)
